Measurements published in patent US10961238B2, “Modulators of hedgehog (Hh) signaling pathway” (E-THERAPEUTICS PLC, priority 2016, dated 2021).

Tested on: C3H10T1/2 cells
Test: C3H assay: differentiation of C3H10T1/2 cells by mSHH, measurement of alkaline phosphatase
Type: cell-based, mouse
Conditions: Mus musculus, C3H 10T1/2, 72 h, read-out: IC50 Ranges

Row | Compound | IC50
1 | O=C(OCCC1CCOCC1)N1CC(S(=O)(=O)N2CCC(c3c[nH]c4ncccc34)CC2)C1 [Compound 60, 2-Tetrahydropyran-4-ylethyl 3-[[4-(1H-pyrrolo[2,3-b]pyridin-3-yl)-1-piperidyl]sulfonyl]azetidine-1-carboxylate] | 10 to 100 nM

Same assay, conditions: Mus musculus, C3H 10T1/2; C3H10T1/2 cells stimulated with mSHH for 72 hours; alkaline phosphatase activity; read-out: IC50 Ranges

Row | IC50 | Compound
2 | 10 to 100 nM | Cc1noc(C)c1CCN1CC(S(=O)(=O)N2CCC(c3c[nH]c4ncccc34)CC2)C1 [Compound 56, 3,5-Dimethyl-4-[2-[3-[[4-(1H-pyrrolo[2,3-b]pyridin-3-yl)-1-piperidyl]sulfonyl]azetidin-1-yl]ethyl]isoxazole]
3 | < 10 nM | O=C(NC1(C(F)(F)F)CC1)N1CC(S(=O)(=O)N2CCC(c3c[nH]c4ncccc34)CC2)C1 [Compound 57, 3-[[4-(1H-Pyrrolo[2,3-b]pyridin-3-yl)-1-piperidyl]sulfonyl]-N-[1-(trifluoromethyl)cyclopropyl]azetidine-1-carboxamide]
4 | 100 to 1000 nM | O=C(OCCCN1CCCCC1)N1CC(S(=O)(=O)N2CCC(c3c[nH]c4ncccc34)CC2)C1 [Compound 58, 3-piperidin-1-ylpropyl 3-[4-(1H-pyrrolo[2,3-b]pyridin-3-yl)piperidin-1-yl]sulfonylaze-tidine-1-carboxylate]
5 | 10 to 100 nM | O=C(OCCN1CCCCC1)N1CC(S(=O)(=O)N2CCC(c3c[nH]c4ncccc34)CC2)C1 [Compound 59, 2-piperidin-1-ylethyl 3-[4-(1H-pyrrolo [2,3-b]pyridin-3-yl)piperidin-1-yl]sulfonylaze-tidine-1-carboxylate]
6 | 1000 to 10000 nM | Cc1noc(C)c1CN1CC(S(=O)(=O)N2CCC(c3c[nH]c4ncccc34)CC2)C1 [Compound 61, 3,5-dimethyl-4-[[3-[4-(1H-pyrrolo [2,3-b]pyridin-3-yl)piperidin-1-yl]sulfonylaze-tidin-1-yl]methyl]-1,2-oxazole]
7 | 10 to 100 nM | Cc1noc(C)c1CC(=O)N1CC(S(=O)(=O)N2CCC(c3c[nH]c4ncccc34)CC2)C1 [Compound 63, 2-(3,5-dimethyl-1,2-oxazol-4-yl)-1-[3-[4-(1H-pyrrolo[2,3-b]pyridin-3-yl)piperidin-1-yl]sulfonylaze-tidin-1-yl]ethanone]
8 | 10 to 100 nM | CC1(C)CCCC(C)(C)N1C(=O)N1CC(S(=O)(=O)N2CCC(c3c[nH]c4ncccc34)CC2)C1 [Compound 64, [3-[4-(1H-pyrrolo[2,3-b]pyridin-3-yl)piperidin-1-yl]sulfonylaze-tidin-1-yl]-(2,2,6,6-tetramethylpiperidin-1-yl)methanone]
9 | 100 to 1000 nM | COCCOC(=O)N1CC(S(=O)(=O)N2CCC(c3c[nH]c4ncccc34)CC2)C1 [Compound 65, 2-methoxyethyl 3-[4-(1H-pyrrolo[2,3-b]pyridin-3-yl)piperidin-1-yl]sulfonylaze-tidine-1-carboxylate]
10 | 10 to 100 nM | CC(C)(C)COC(=O)N1CC(S(=O)(=O)N2CCC(c3c[nH]c4ncccc34)CC2)C1 [Compound 66, 2,2-dimethylpropyl 3-[4-(1H-pyrrolo[2,3-b]pyridin-3-yl)piperidin-1-yl]sulfonylaze-tidine-1-carboxylate]
11 | 100 to 1000 nM | O=S(=O)(C1CN(Cc2cccs2)C1)N1CCC(c2c[nH]c3ncccc23)CC1 [Compound 68, 3-[1-[1-(thiophen-2-ylmethyl)azetidin-3-yl]sulfonylpiper-idin-4-yl]-1H-pyrrolo[2,3-b]pyridine]
12 | 100 to 1000 nM | O=S(=O)(C1CN(Cc2ccc[nH]2)C1)N1CCC(c2c[nH]c3ncccc23)CC1 [Compound 69, 3-[1-[1-(1H-pyrrol-2-ylmethyl)azetidin-3-yl]sulfonylpiper-idin-4-yl]-1H-pyrrolo[2,3-b]pyridine]
13 | 100 to 1000 nM | O=S(=O)(C1CN(Cc2ccco2)C1)N1CCC(c2c[nH]c3ncccc23)CC1 [Compound 70, 3-[1-[1-(furan-2-ylmethyl)azetidin-3-yl]sulfonylpiper-idin-4-yl]-1H-pyrrolo[2,3-b]pyridine]
14 | 1000 to 10000 nM | O=S(=O)(C1CN(c2ccncc2)C1)N1CCC(c2c[nH]c3ncccc23)CC1 [Compound 71, 3-[1-(1-pyridin-4-ylazetidin-3-yl)-sulfonylpiper-idin-4-yl]-1H-pyrrolo[2,3-b]pyridine]
15 | 1000 to 10000 nM | O=C(c1ccncc1)N1CC(S(=O)(=O)N2CCC(c3c[nH]c4ncccc34)CC2)C1 [Compound 72, pyridin-4-yl-[3-[4-(1H-pyrrolo[2,3-b]pyridin-3-yl)piperidin-1-yl]sulfonylaze-tidin-1-yl]methanone]
16 | 100 to 1000 nM | CC(C)(C)C(=O)N1CC(S(=O)(=O)N2CCC(c3c[nH]c4ncccc34)CC2)C1 [Compound 73, 2,2-dimethyl-1-[3-[4-(1H-pyrrolo[2,3-b]pyridin-3-yl)piperidin-1-yl]sulfonylaze-tidin-1-yl]propan-1-one]
17 | 1000 to 10000 nM | CC(C)(C)c1ccc(C(=O)N2CC(S(=O)(=O)N3CCC(c4c[nH]c5ncccc45)CC3)C2)cc1 [Compound 74, (4-tert-butylphenyl)-[3-[4-(1H-pyrrolo[2,3-b]pyridin-3-yl)piperidin-1-yl]sulfonylaze-tidin-1-yl]methanone]
18 | 10 to 100 nM | O=C(OCc1ccccc1)N1CC(S(=O)(=O)N2CCC(c3c[nH]c4ncccc34)CC2)C1 [Compound 76, benzyl 3-[4-(1H-pyrrolo[2,3-b]pyridin-3-yl)piperidin-1-yl]sulfonylaze-tidine-1-carboxylate]

Row | IC50 | Compound
19 | 10 to 100 nM | O=C(Oc1ccc(F)cc1)N1CC(S(=O)(=O)N2CCC(c3c[nH]c4ncccc34)CC2)C1 [Compound 77, (4-fluorophenyl) 3-[4-(1H-pyrrolo[2,3-b]pyridin-3-yl)piperidin-1-yl]sulfonylaze-tidine-1-carboxylate]
20 | 100 to 1000 nM | O=C(NCc1cocn1)N1CC(S(=O)(=O)N2CCC(c3c[nH]c4ncccc34)CC2)C1 [Compound 78, N-(1,3-oxazol-4-ylmethyl)-3-[4-(1H-pyrrolo[2,3-b]pyridin-3-yl)piperidin-1-yl]sulfonylaze-tidine-1-carboxamide]
21 | 1000 to 10000 nM | O=C(N1CC(S(=O)(=O)N2CCC(c3c[nH]c4ncccc34)CC2)C1)n1ccnc1 [Compound 79, imidazol-1-yl-[3-[4-(1H-pyrrolo[2,3-b]pyridin-3-yl)piperidin-1-yl]sulfonylaze-tidin-1-yl]methanone]
22 | 100 to 1000 nM | O=C(NCc1cncs1)N1CC(S(=O)(=O)N2CCC(c3c[nH]c4ncccc34)CC2)C1 [Compound 80, 3-[4-(1H-pyrrolo[2,3-b]pyridin-3-yl)piperidin-1-yl]sulfonyl-N-(1,3-thiazol-5-ylmethyl)azetidine-1-carboxamide]
23 | 100 to 1000 nM | Cn1ccc(CNC(=O)N2CC(S(=O)(=O)N3CCC(c4c[nH]c5ncccc45)CC3)C2)n1 [Compound 81, N-[(1-Methylpyrazol-3-yl)methyl]-3-[[4-(1H-pyrrolo[2,3-b]pyridin-3-yl)-1-piperidyl]sulfonyl]azetidine-1-carboxamide]
24 | 100 to 1000 nM | CCN(CC)C(=O)N1CC(S(=O)(=O)N2CCC(c3c[nH]c4ncccc34)CC2)C1 [Compound 82, N,N-diethyl-3-[4-(1H-pyrrolo[2,3-b]pyridin-3-yl)piperidin-1-yl]sulfonylaze-tidine-1-carboxamide]
25 | 1000 to 10000 nM | O=C(OCc1ccco1)N1CC(S(=O)(=O)N2CCC(c3c[nH]c4ncccc34)CC2)C1 [Compound 83, furan-2-ylmethyl 3-[4-(1H-pyrrolo[2,3-b]pyridin-3-yl)piperidin-1-yl]sulfonylaze-tidine-1-carboxylate]
26 | 10 to 100 nM | O=C(NCc1cccs1)N1CC(S(=O)(=O)N2CCC(c3c[nH]c4ncccc34)CC2)C1 [Compound 85, 3-[4-(1H-pyrrolo[2,3-b]pyridin-3-yl)piperidin-1-yl]sulfonyl-N-(thiophen-2-ylmethyl)azetidine-1-carboxamide]
27 | 100 to 1000 nM | O=C(N1CCCCC1)N1CC(S(=O)(=O)N2CCC(c3c[nH]c4ncccc34)CC2)C1 [Compound 86, piperidin-l-yl-[3-[4-(1H-pyrrolo[2,3-b]pyridin-3-yl)piperidin-1-yl]sulfonylaze-tidin-1-yl]methanone]
28 | 100 to 1000 nM | O=C(N1CCCC1)N1CC(S(=O)(=O)N2CCC(c3c[nH]c4ncccc34)CC2)C1 [Compound 87, pyrrolidin-1-yl-[3-[4-(1H-pyrrolo[2,3-b]pyridin-3-yl)piperidin-1-yl]sulfonylaze-tidin-1-yl]methanone]
29 | 1000 to 10000 nM | CC(C)N1CC(S(=O)(=O)N2CCC(c3c[nH]c4ncccc34)CC2)C1 [Compound 89, 3-[1-(1-propan-2-ylazetidin-3-yl)sulfonylpiper-idin-4-yl]-1H-pyrrolo[2,3-b]pyridine]
30 | 100 to 1000 nM | CN(C)S(=O)(=O)N1CC(S(=O)(=O)N2CCC(c3c[nH]c4ncccc34)CC2)C1 [Compound 90, N,N-dimethyl-3-[4-(1H-pyrrolo[2,3-b]pyridin-3-yl)piperidin-1-yl]sulfonylaze-tidine-1-sulfonamide]
31 | 100 to 1000 nM | CS(=O)(=O)N1CC(S(=O)(=O)N2CCC(c3c[nH]c4ncccc34)CC2)C1 [Compound 91, 3-[1-(1-Methylsulfonylazetidin-3-yl)sulfonyl-4-piperidyl]-1H-pyrrolo[2,3-b]pyridine]
32 | 1000 to 10000 nM | CN(C)S(=O)(=O)n1cc(C2CCN(S(=O)(=O)C3CN(C(=O)OC(C)(C)C)C3)CC2)c2cccnc21 [Compound 92, tert-butyl 3-[4-[1-(dimethylsulfamoyl)pyrrolo[2,3-b]pyridin-3-yl]piperidin-1-yl]sulfonylaze-tidine-1-carboxylate]
33 | 1000 to 10000 nM | CC(C)(C)OC(=O)N1CC(S(=O)(=O)N2CCC(c3cn(S(C)(=O)=O)c4ncccc34)CC2)C1 [Compound 93, tert-Butyl 3-[[4-(1-methylsulfonylpyrrolo[2,3-b]pyridin-3-yl)-1-piperidyl]sulfonyl]azetidine-1-carboxylate]
34 | 100 to 1000 nM | Cn1cc(C2CCN(S(=O)(=O)C3CN(C(=O)OC(C)(C)C)C3)CC2)c2cccnc21 [Compound 94, tert-Butyl 3-[[4-(1-methylpyrrolo[2,3-b]pyridin-3-yl)-1-piperidyl]sulfonyl]azetidine-1-carboxylate]

Row | Compound | IC50
35 | Cc1noc(C)c1COC(=O)N1CC(S(=O)(=O)N2CCC(c3c[nH]c4ncccc34)CC2)C1 [Compound 62, (3,5-Dimethylisoxazol-4-yl)methyl 3-[[4-(1H-pyrrolo[2,3-b]pyridin-3-yl)-1-piperidyl]sulfonyl]azetidine-1-carboxylate] | 10 to 100 nM
